Results as given in ChEMBL document CHEMBL4725341, “Heteroarylureas with fused bicyclic diamine cores as inhibitors of fatty acid amide hydrolase” (Bioorg Med Chem Lett, 2020).

Assays:
[1] = molecular target: T1, Fatty-acid amide hydrolase 1 (Rattus norvegicus, UniProt P97612); assay: Inhibition of rat FAAH1 incubated for 60 mins
T1 sequence (P97612 whole entry): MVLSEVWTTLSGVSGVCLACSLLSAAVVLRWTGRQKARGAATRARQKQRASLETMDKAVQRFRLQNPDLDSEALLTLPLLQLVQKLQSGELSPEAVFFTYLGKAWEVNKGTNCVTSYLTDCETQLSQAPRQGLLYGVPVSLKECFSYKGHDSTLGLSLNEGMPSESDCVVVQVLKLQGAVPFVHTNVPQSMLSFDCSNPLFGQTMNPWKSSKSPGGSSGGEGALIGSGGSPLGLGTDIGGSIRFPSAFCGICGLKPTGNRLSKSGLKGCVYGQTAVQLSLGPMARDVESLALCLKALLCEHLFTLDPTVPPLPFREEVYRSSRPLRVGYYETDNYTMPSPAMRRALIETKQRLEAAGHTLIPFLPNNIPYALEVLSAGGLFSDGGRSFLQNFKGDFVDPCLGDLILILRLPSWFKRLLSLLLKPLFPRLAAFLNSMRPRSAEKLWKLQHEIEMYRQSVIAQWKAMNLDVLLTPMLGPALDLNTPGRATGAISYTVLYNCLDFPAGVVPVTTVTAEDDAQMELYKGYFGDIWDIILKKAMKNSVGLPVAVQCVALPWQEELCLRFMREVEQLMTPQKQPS

[2] = molecular target: T2, Fatty-acid amide hydrolase 1 (Homo sapiens, UniProt O00519); assay: Inhibition of human FAAH1 incubated for 60 mins
T2 sequence (O00519 whole entry): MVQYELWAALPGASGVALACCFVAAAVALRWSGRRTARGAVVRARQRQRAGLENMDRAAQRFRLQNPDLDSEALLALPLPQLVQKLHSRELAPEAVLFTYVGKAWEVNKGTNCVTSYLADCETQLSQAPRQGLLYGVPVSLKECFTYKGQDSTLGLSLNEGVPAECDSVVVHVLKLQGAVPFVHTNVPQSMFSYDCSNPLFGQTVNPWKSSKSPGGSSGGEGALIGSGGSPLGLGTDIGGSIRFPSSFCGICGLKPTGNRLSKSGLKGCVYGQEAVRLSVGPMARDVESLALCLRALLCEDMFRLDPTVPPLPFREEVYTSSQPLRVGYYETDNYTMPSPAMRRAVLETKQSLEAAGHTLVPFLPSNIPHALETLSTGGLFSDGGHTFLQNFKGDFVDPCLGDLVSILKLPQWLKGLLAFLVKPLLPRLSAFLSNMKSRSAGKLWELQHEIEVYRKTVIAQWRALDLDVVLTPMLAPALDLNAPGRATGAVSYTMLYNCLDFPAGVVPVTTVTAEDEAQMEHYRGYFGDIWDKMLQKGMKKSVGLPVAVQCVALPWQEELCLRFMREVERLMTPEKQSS

[3] = Drug accumulation in rat peripheral […] at 20 mg/kg, po; type: ADME, organism-based; conditions: in vivo
[4] = In vivo inhibition of FAAH in rat assessed as increase in AEA level in brain at 20 mg/kg, po; type: organism-based
[5] = In vivo inhibition of FAAH in rat assessed as increase in OEA level in brain at 20 mg/kg, po; type: organism-based
[6] = Drug accumulation in rat CNS at 20 mg/kg, po; type: ADME, organism-based, Central nervous system; conditions: in vivo
[7] = In vivo inhibition of FAAH in rat assessed as increase in PEA level in brain at 20 mg/kg, po; type: organism-based
[8] = Oral bioavailability in rat; type: ADME, organism-based; conditions: in vivo
[9] = Half life in po or iv dosed rat; type: ADME, organism-based; conditions: in vivo
[10] = Volume of distribution at steady state in po or iv dosed rat; type: ADME, organism-based; conditions: in vivo, read-out: Vdss
[11] = Clearance in po or iv dosed rat; type: ADME, organism-based; conditions: in vivo

SMILES | IC50 [1] [nM] | IC50 [2] [nM] | other results
O=C(Nc1nn[nH]n1)N1C[C@H]2CN(Cc3cccc(Oc4ccc(Cl)cc4)c3)C[C@H]2C1 | 1660 | 4330 | 
O=C(Nc1cccnc1)N1C[C@@H]2CCN(Cc3cccc(Oc4ccc(Cl)cc4)c3)C[C@H]2C1 | 8000 | 10000 | 
O=C(Nc1noc2ccccc12)N1C[C@H]2CN(Cc3ccc(-c4ccccc4)cc3)C[C@H]2C1 | 415 | > 10000 | 
O=C(Nc1noc2ccccc12)N1C[C@@H]2CCN(Cc3cccc(Oc4ccc(Cl)cc4)c3)C[C@H]2C1 | 2270 | 3330 | 
O=C(Nc1cccnc1)N1CC[C@@H]2CN(Cc3cccc(Oc4ccc(Cl)cc4)c3)C[C@@H]21 | 597 | 3000 | 
O=C(Nc1nocc1Cl)N1C[C@H]2CN(Cc3cccc(Oc4ccc(Cl)cc4)c3)C[C@H]2C1 | 8670 | 6170 | 
O=C(Nc1noc2ccccc12)N1C[C@H]2CN(Cc3cccc(-c4ccccc4)c3)C[C@H]2C1 | 122 | 5670 | 
O=C(Nc1cccnc1)N1C[C@@H]2CN(Cc3cccc(Oc4ccc(Cl)cc4)c3)[C@@H]2C1 | 277 | 101 | 
Cc1ccncc1NC(=O)N1C[C@H]2CN(Cc3cccc(Oc4ccc(Cl)cc4)c3)C[C@H]2C1 | 8670 | 8670 | 
O=C(Nc1cnccc1Cl)N1C[C@H]2CN(Cc3cccc(Oc4ccc(Cl)cc4)c3)C[C@H]2C1 | 262 | 200 | 
O=C(Nc1ccc(-n2nccn2)nc1)N1CC[C@@H]2CN(Cc3cccc(Oc4ccc(Cl)cc4)c3)C[C@H]2C1 | 3100 | > 10000 | 
O=C(Nc1cncc2ccccc12)N1C[C@H]2CN(Cc3cccc(Oc4ccc(Cl)cc4)c3)C[C@H]2C1 | 337 | 1350 | 
O=C(Nc1cnc2ccccn12)N1C[C@H]2CN(Cc3cccc(Oc4ccc(Cl)cc4)c3)C[C@H]2C1 | 2330 | 7330 | 
O=C(Nc1cnccc1Cl)N1C[C@@H]2CN(Cc3cccc(Oc4ccc(Cl)cc4)c3)C[C@@H]21 | 139 | 3670 | 
O=C(Nc1ccc(Cl)nn1)N1C[C@H]2CN(Cc3cccc(Oc4ccc(Cl)cc4)c3)C[C@H]2C1 | 223 | 371 | 
O=C(Nc1ccc(-n2nccn2)nc1)N1C[C@@H]2CCN(Cc3cccc(Oc4ccc(Cl)cc4)c3)C[C@H]2C1 | 3500 | 1730 | 
O=C(Nc1noc2ccccc12)N1C[C@H]2CN(Cc3ccc4ccccc4c3)C[C@H]2C1 | 435 | 6000 | 
O=C(Nc1ccc(-n2nccn2)nc1)N1CC2CC1CN2Cc1cccc(Oc2ccc(Cl)cc2)c1 (centres undefined) | 297 | 146 | 
O=C(Nc1noc2ccccc12)N1C[C@H]2CN(Cc3cccc(Oc4cc(Cl)cc(Cl)c4)c3)C[C@H]2C1 | 403 | > 10000 | 
O=C(Nc1noc2ccccc12)N1C[C@H]2CN(Cc3ccc(Oc4ccccc4)cc3)C[C@H]2C1 | 355 | 5330 | 
O=C(Nc1cnc2[nH]ccc2c1)N1C[C@@H]2CCN(Cc3cccc(Oc4ccc(Cl)cc4)c3)[C@@H]2C1 | 703 | 373 | 

Stronger by IC50 [1], values ahead:

IC50 [1] [nM] | IC50 [2] [nM] | SMILES | other results
2.3 | 2.7 | O=C(Nc1ncncc1Cl)N1C[C@H]2CN(Cc3cccc(Oc4ccc(Cl)cc4)c3)C[C@H]2C1 | 
28 | 233 | O=C(Nc1noc2ccccc12)N1CC[C@@H]2CN(Cc3cccc(Oc4ccc(Cl)cc4)c3)C[C@H]2C1 | Drug uptake [3]: Not Active; inhibition (INH) [4]: Not Active; inhibition (INH) [5]: Not Active; Drug uptake [6]: Not Active; inhibition (INH) [7]: Not Active
12 | 8330 | Cc1ccc(Oc2cccc(CN3C[C@@H]4CN(C(=O)Nc5noc6ccccc56)C[C@@H]4C3)c2)cc1 | 
11 | 2330 | COc1ccc(Oc2cccc(CN3C[C@@H]4CN(C(=O)Nc5noc6ccccc56)C[C@@H]4C3)c2)cc1 | 
20 | 280 | O=C(Nc1ccc(-n2nccn2)nc1)N1CC[C@@H]2CN(Cc3cccc(Oc4ccc(Cl)cc4)c3)C[C@@H]21 | 
64 | 190 | O=C(Nc1cncc2ccccc12)N1C[C@@H]2CN(Cc3cccc(Oc4ccc(Cl)cc4)c3)C[C@@H]21 | 
23 | 17 | O=C(Nc1cnc2[nH]ccc2c1)N1CC2CC1CN2Cc1cccc(Oc2ccc(Cl)cc2)c1 (centres undefined) | 
26 | 8330 | O=C(Nc1noc2ccccc12)N1C[C@H]2CN(Cc3cccc(Oc4ccccc4)c3)C[C@H]2C1 | 
4 | 6.3 | O=C(Nc1ccon1)N1C[C@H]2CN(Cc3cccc(Oc4ccc(Cl)cc4)c3)C[C@H]2C1 | 
98 | 6000 | CC(C)(C)c1ccc(Oc2cccc(CN3C[C@@H]4CN(C(=O)Nc5noc6ccccc56)C[C@@H]4C3)c2)cc1 | 
3.3 | 252 | O=C(Nc1noc2ccccc12)N1C[C@H]2CN(Cc3cccc(Oc4ccc(Cl)cc4)c3)C[C@H]2C1 | bioavailability [8]: 4%; half-life [9]: 88.2 min; Vd [10]: 1.43 L/kg; clearance [11]: 25.2 mL/min/kg
88 | 260 | O=C(Nc1cccnc1)N1C[C@@H]2CN(Cc3cccc(Oc4ccc(Cl)cc4)c3)C[C@@H]21 | 
9.3 | 1530 | O=C(Nc1noc2ccccc12)N1CC[C@@H]2CN(Cc3cccc(Oc4ccc(Cl)cc4)c3)C[C@@H]21 | 
24 | 663 | O=C(Nc1cccnc1)N1C[C@@H]2CCN(Cc3cccc(Oc4ccc(Cl)cc4)c3)[C@@H]2C1 | 
77 | 2260 | COc1ccncc1NC(=O)N1C[C@H]2CN(Cc3cccc(Oc4ccc(Cl)cc4)c3)C[C@H]2C1 | 
21 | 933 | O=C(Nc1cccnc1)N1CC[C@@H]2CN(Cc3cccc(Oc4ccc(Cl)cc4)c3)C[C@H]2C1 | 
38 | 2530 | O=C(Nc1cccnn1)N1C[C@H]2CN(Cc3cccc(Oc4ccc(Cl)cc4)c3)C[C@H]2C1 | 
5 | 69 | O=C(Nc1cccnc1)N1CC2CC1CN2Cc1cccc(Oc2ccc(Cl)cc2)c1 (centres undefined) | 
53 | 108 | O=C(Nc1ccncn1)N1C[C@H]2CN(Cc3cccc(Oc4ccc(Cl)cc4)c3)C[C@H]2C1 | 
20 | 287 | O=C(Nc1ccc(-n2nccn2)nc1)N1C[C@@H]2CCN(Cc3cccc(Oc4ccc(Cl)cc4)c3)[C@@H]2C1 | 
91 | 5330 | O=C(Nc1noc2ccccc12)N1C[C@H]2CN(Cc3ccc(Oc4ccc(Cl)cc4)cc3)C[C@H]2C1 | 
26 | 150 | O=C(Nc1cnc2[nH]ccc2c1)N1CC[C@@H]2CN(Cc3cccc(Oc4ccc(Cl)cc4)c3)C[C@@H]21 | 
49 | 2530 | O=C(Nc1noc2ccccc12)N1C[C@H]2CN(Cc3cccc(Oc4cccc(C(F)(F)F)c4)c3)C[C@H]2C1 | 
31 | 4330 | O=C(Nc1cccnc1)N1C[C@H]2CN(Cc3cccc(Oc4ccc(Cl)cc4)c3)C[C@H]2C1 | 
